Data from paper PMC6789111, “Crossing the blood-brain-barrier with nanoligand drug carriers self-assembled from a phage display peptide” (Nature Communications, 2019).
Read-outs that look alike come from different tables or passages of the source. Peptide text beside a SMILES is read from it. * marks the point of attachment. 5FAM = O=C1OC2(c3ccc(O)cc3Oc3cc(O)ccc32)c2ccc(C(=O)*)cc21

How the values were obtained:
[1] = Blood clearance after intravenous injection; type: in vivo, ICR mice; details: Cy5.5 peptide i.v., Ave
Experimental: (§1) The final concentration of the peptide conjugate was 10 µM and that of siRNA was 48 nM based on blood volume calculation equivalent to 6% of the body weight. At different time points blood samples were collected via retro-orbital blood collection. For whole animal imaging system mice were anaesthetised with isoflurane and in vivo fluorescence images were taken (IVIS 200 Spectrum, USA), at different time points. At 4 h post administration, mice were sacrificed, and the liver, lungs, kidneys, spleen, pancreas and brain were collected and stored in liquid nitrogen. The organs were homogenised (FastPrep-24™ 5G Instrument, MP Biomedicals, USA) and the levels of peptide and siRNA were measured in a fluorescence spectrometer (Fluotime 300, Picoquant, Berlin, Germany) using a standard curve.

[2] = Brain level after intravenous injection; type: in vivo, ICR mice; details: for Brain level (% of injected dose): Cy5.5 peptide i.v., Ave
Experimental: as §1, with “At 4 h post administration, mice were sacrificed, and the liver, lungs, kidneys, spleen, pancreas and brain were collected and stored in liquid nitrogen.” left out

hCMEC/D3 cell monolayer = test: Transwell in vitro BBB model; type: cell-based, human
Experimental: For the construction of the in vitro BBB model, hCMEC/D3 cells were seeded on rat tail collagen-coated polycarbonate membranes (Transwell, No. 3401 Costar; Corning, Wiesbaden, Germany; 0.4 μm pore size; 1.13 cm^2 growth area) with a density of 100,000 cells cm^−2. Every three days the cell medium was change. In general after 7 days growth, the cells reached confluence. The transendothelial electrical resistance (TEER) and cell layer capacitance (CCL), which reflects the membrane surface area of the hCMEC/D3 cell monolayer, were measured using CellZscope system (NanoAnalytics, Münster, Germany). Cells with CCL values in the range of 0.5–5.0 μF cm^−2 indicate cell confluence and validate TEER values were selected for the transfer experiments. NLCs at different concentrations were introduced in to the apical side of the BBB model. The TEER values were measured during the incubation. After 24 h of incubation, the media from basal and apical sides were sampled and analysed for fluorescent measurement. CD31 and paracellular adherens (β-catenin) junctions were assessed by immunofluorescence labeling directly on the cell monolayer attached to the transwell membrane. Briefly, cells were fixed by 4% v/v paraformaldehyde for 10 min, rinsed and then permeabilised with 0.5% (v/v) Triton X-100 for 10 min. After rinsing samples were blocked by 5% w/v BSA for 1 h, followed by incubation with primary antibodies (rabbit polyclonal to CD31, rabbit polyclonal to anti-β-catenin) in 1% w/v BSA overnight at 4 °C. […] After rinsing, the red fluorescence from tight junction proteins was observed by a Leica AF6000LX microscope equipped with a 63 × objective using ×1.6 magnifications. […]
formation of multiple cell-layers was sometime observed from day 7 onward. […] TEER values and its corresponding capacitance were recorded after the introduction of peptide for 24 h. (d) & (e) Staining and quantification of endothelial cells (CD31) and adheren β-catenin markers confirming the presence of a functional tight junction before and after NLC ( 5 µM) challenge. […]

hCMEC/D3 cells = test: Uptake with internalisation inhibitors; details: 37 °C
Experimental: The medium was then removed and replaced with a fresh medium containing NLCs and the corresponding inhibitor. After 8 h of incubation at 37 °C, cells were washed three times with cell medium and analysed by FACS. Cell viability at the end of each experiment was >90% as determined by Trypan Blue exclusion test. The following inhibitors were used: 2-deoxy-D-glucose (1 mM)/sodium azide (1 mM) as energy-dependent inhibitors, worthmanin (10 μM) as macropinocytosis inhibitor, chloropromazine (30 μM) as clathrin-dependent endocytosis inhibitor, N-ethylmaleimide (5 μM) as caveolae-dependent endocytosis and transcytosis inhibitor and indomethacin (200 μM) as caveolae-dependent endocytosis inhibitor.

BACE1 = test: In vivo BACE1 silencing, Western blot; parameters: species or system ICR mice; details: for BACE1 expression level: 72 nM siRNA
Experimental: For in vivo BACE1 silencing, 20 ICR mice were randomly divided into five groups (4 mice in each group) and administrated intravenously with either 72 nM siControl/FAM-CGY or BACE1 siRNA (final concentration, 72 nM) or 72 nM siControl/FAM-CGY scramble peptide1 or 48 nM BACE1 siRNA/FAM-CGY or 72 nM BACE1 siRNA/FAM-CGY, respectively. The final concentration of peptide was 10 μM. […] The frozen brain tissues (80–90 mg) were homogenized in RIPA lysis buffer (Beyotime, China) and centrifuged at 18,000 × g, 4 °C for 15 min. Protein concentration of the supernatant was determined using the BCA Protein Assay Kit. Equal amounts of protein from each sample were loaded on SDS-PAGE gels (4–15%) for the determination with level of the target protein determined by Western blotting using the anti-BACE1 antibody (1:1000 dilution) and detected with HRP-Goat-anti-rabbit) IgG (H + L) secondary antibody (1:3000).

[3] = Blood count after intravenous injection; type: in vivo, ICR mice; details: mouse, in vivo, iv
Source text: Supplementary Table 2. Blood count following intravenous injection of FAM-CGY NLCs in free form and complexed with siRNA
Samples WBC RBC HGB HCT MCV MCH MCHC PLT
WBC: white blood cell; RBC: red blood cell count; HGB: haemoglobin; HCT: haematocrit; MCV: mean corpuscular volume; MCH: mean corpuscular haemoglobin; MCHC: mean corpuscular
significance (*p < 0.05). The results are mean ± s.d. (n = 3 animals per group). The experiment was repeated twice with identical results. The siRNA represent BACE-1-specific siRNA. The
final concentration of the peptide conjugate was 10 µM and that of siRNA was 48 nM, based on blood volume calculation equivalent to 6% of the body weight. LPS = lipopolysaccharide.

Blood level (% of injected dose) ([1]; 0.25 h)	Blood level (% of injected dose) ([1]; 0.50 h)	Blood level (% of injected dose) ([1]; 1.00 h)	Blood level (% of injected dose) ([1]; 4.00 h)	Blood level (% of injected dose) ([1]; 12.00 h)	Blood level (% of injected dose) ([1]; 24.00 h)	Brain level (% of injected dose) ([2]; 0.25 h)	Brain level (% of injected dose) ([2]; 0.50 h)	Brain level (% of injected dose) ([2]; 1.00 h)	Brain level (% of injected dose) ([2]; 4.00 h)	Brain level (% of injected dose) ([2]; 12.00 h)	Brain level (% of injected dose) ([2]; 24.00 h)	Molecule	further results
65.67 % of injected dose	27.80 % of injected dose	11.82 % of injected dose	6.91 % of injected dose	3.51 % of injected dose	1.61 % of injected dose	0.74 % of injected dose	1.20 % of injected dose	1.71 % of injected dose	1.92 % of injected dose	1.01 % of injected dose	0.39 % of injected dose	Cy5.5- CGYRPVHNIGHWRAPG [Cy5.5-CGY scrambled 1]	brain accumulation ([2]; i.v., mice): poorly accumulates in the brain
–	–	–	–	–	–	–	–	–	–	–	–	O=C(O)c1ccc2c(c1)C(=O)OC21c2ccc(O)cc2Oc2cc(O)ccc21 [5-FAM, 5-carboxy-fluorescein, reference compound]	transport across the hCMEC/D3 monolayer (hCMEC/D3 cell monolayer): neither the fluorophor 5-FAM nor the scrambled peptide showed notable transport
–	–	–	–	–	–	–	–	–	–	–	–	CC[C@H](C)[C@H](NC(=O)[C@H](CC(N)=O)NC(=O)[C@H](Cc1c[nH]cn1)NC(=O)[C@@H](NC(=O)[C@@H]1CCCN1C(=O)[C@H](CCCNC(=N)N)NC(=O)[C@H](Cc1ccc(O)cc1)NC(=O)CNC(=O)[C@H](CS)NC(=O)c1ccc2c(c1)C(=O)OC21c2ccc(O)cc2Oc2cc(O)ccc21)C(C)C)C(=O)NCC(=O)N[C@@H](Cc1c[nH]cn1)C(=O)N[C@@H](Cc1c[nH]c2ccccc12)C(=O)N[C@@H](CCCNC(=N)N)C(=O)N[C@@H](C)C(=O)N1CCC[C@H]1C(=O)NCC(=O)O [FAM-CGY scrambled 1] (5FAM-CGYRPVHNIGHWRAPG-OH)	transport across the hCMEC/D3 monolayer (hCMEC/D3 cell monolayer; apical to basal, 24 h, fluorescence): neither the fluorophor 5-FAM nor the scrambled peptide showed notable transport
–	–	–	–	–	–	–	–	–	–	–	–	Transferrin: Texas Red-labelled transferrin, TfR substrate, positive control [reference compound]	Mean flouresence (%), uptake vs Control (no inhibitor) (hCMEC/D3 cells; CPZ (chloropromazine 30 μM), 8 h, replicate 1): 55.06%; Mean flouresence (%), uptake vs Control (no inhibitor) (hCMEC/D3 cells; CPZ (chloropromazine 30 μM), 8 h, replicate 2): 58.26%; Mean flouresence (%), uptake vs Control (no inhibitor) (hCMEC/D3 cells; CPZ (chloropromazine 30 μM), 8 h, replicate 3): 48.74%; Mean flouresence (%), uptake vs Control (no inhibitor) (hCMEC/D3 cells; DOG+NaN3 (1 mM/1 mM), 8 h, replicate 2): 38.57%; Mean flouresence (%), uptake vs Control (no inhibitor) (hCMEC/D3 cells; DOG+NaN3 (1 mM/1 mM), 8 h, replicate 3): 34.62%; Mean flouresence (%), uptake vs Control (no inhibitor) (hCMEC/D3 cells; DOG+NaN3 (2-deoxy-D-glucose 1 mM/sodium azide 1 mM), 8 h, replicate 1): 42.26%; Mean flouresence (%), uptake vs Control (no inhibitor) (hCMEC/D3 cells; IMC (indomethacin 200 μM), 1 h pre-treatment + 8 h, FACS, FAM-CGY NLC 5 µM or Texas Red-transferrin 5 µg per well, replicate 1): 102.05%; Mean flouresence (%), uptake vs Control (no inhibitor) (hCMEC/D3 cells; IMC (indomethacin 200 μM), 8 h, replicate 2): 90.27%; Mean flouresence (%), uptake vs Control (no inhibitor) (hCMEC/D3 cells; NEM (N-ethylmaleimide 5 μM), 8 h, replicate 1): 86.23%; Mean flouresence (%), uptake vs Control (no inhibitor) (hCMEC/D3 cells; NEM (N-ethylmaleimide 5 μM), 8 h, replicate 2): 95.58%; Mean flouresence (%), uptake vs Control (no inhibitor) (hCMEC/D3 cells; NEM (N-ethylmaleimide 5 μM), 8 h, replicate 3): 86.57%; Mean flouresence (%), uptake vs Control (no inhibitor) (hCMEC/D3 cells; WOR (worthmanin 10 μM), 8 h, replicate 1): 112.26%; Mean flouresence (%), uptake vs Control (no inhibitor) (hCMEC/D3 cells; WOR (worthmanin 10 μM), 8 h, replicate 2): 98.26%; Mean flouresence (%), uptake vs Control (no inhibitor) (hCMEC/D3 cells; WOR (worthmanin 10 μM), 8 h, replicate 3): 108.61%
77.38 % of injected dose	31.74 % of injected dose	14.16 % of injected dose	12.22 % of injected dose	6.13 % of injected dose	1.31 % of injected dose	2.16 % of injected dose	3.71 % of injected dose	5.40 % of injected dose	5.73 % of injected dose	3.72 % of injected dose	1.71 % of injected dose	Cy5.5-CGYRPVHNIRGHWAPG	peak brain level ([2]; 4 h after i.v., corrected for the blood content): 5.7 % of the injected dose
–	–	–	–	–	–	–	–	–	–	–	–	siBACE1: sense 5′-GCUUUGUGGAGAUGGUGGATT-3′, antisense 5′-UCCACCAUCUCCACAAAGCTT-3′; siRNA of Supplementary Table 2 (chemistry not given here)	BACE1 expression level (BACE1; 48 h after i.v., siControl = 100.00, Ave.): 101.87; BACE1 expression level (BACE1; 48 h after i.v., siControl = 100.00, experiment 2): 94.53; BACE1 expression level (BACE1; 48 h after i.v., siControl = 100.00, experiment 3): 102.52; BACE1 expression level (BACE1; peptide 10 μM where present, single i.v., 48 h, FAM-CGY+72 nM siControl = 100.00, experiment 1): 108.56; pharmacological activity in hippocampus (BACE1; i.v. BACE1 siRNA in free form or with FAM-SP1): no pharmacological activity; WBC [3]: 4.54±0.30 (×109)L-1
